Experimental data published in patent US10173968B2, “Bishydrazone-based antifungal agents” (University of Kentucky Research Foundation, priority 2016, dated 2019).
“And” between values parts separate entries of the source, which are not always exact repeats. Identical values can stand only once. Like-named read-outs stand apart in the source and are kept apart here.

Tests used:
[1] = tested on: C. albicans strains (panel of seven); assay: Antifungal MIC, summary over the panel; format: cell-based, Candida albicans; conditions: Candida albicans; all, most or majority of the fungal strains; read-out: MIC, span over C. albicans strains
Protocol: In vitro MIC testing was performed according to the CLSI M27-A3 standard microbroth dilution methodology for the susceptibility testing of yeasts with minor modifications. […] MIC values were read visually for all tested compounds, and the endpoint was determined as the minimum concentration of compound that yielded complete inhibition relative to growth control.

P. aeruginosa ATCC 27853 = assay: Antibacterial MIC, double-dilution method; format: cell-based; conditions: Pseudomonas aeruginosa, ATCC27853, strain I, Gram-negative, read-out: MIC
Protocol: (§1) MIC values were determined against a variety of Gram-positive (strains A-D) and Gram-negative (E-J) bacterial and mycobacterial (K) strains using the double-dilution method, as previously published. Preliminary screening was performed using 500 μM of each compound.

E. cloacae ATCC 13047 = assay: Antibacterial MIC, double-dilution method; format: cell-based; conditions: Enterobacter cloacae, ATCC13047, strain F, Gram-negative, read-out: MIC
Protocol: as §1

MRSA = assay: Antibacterial MIC, double-dilution method; format: cell-based; conditions: Staphylococcus aureus
Protocol: as §1

B. subtilis 168 = assay: Antibacterial MIC, double-dilution method; format: cell-based; conditions: Bacillus subtilis, strain A, Gram-positive
Protocol: as §1

E. coli MC1061 = assay: Antibacterial MIC, double-dilution method; format: cell-based; conditions: Escherichia coli
Protocol: as §1

M. smegmatis MC2-155 = assay: Antibacterial MIC, double-dilution method; format: cell-based; conditions: mycobacterial
Protocol: as §1

VRE = assay: Antibacterial MIC, double-dilution method; format: cell-based; conditions: Enterococcus
Protocol: as §1

[2] = tested on: L. monocytogenes ATCC 19115; assay: Antibacterial MIC, double-dilution method; format: cell-based; conditions: Listeria monocytogenes, ATCC19115
Protocol: as §1

S. enterica ATCC 14028 = assay: Antibacterial MIC, double-dilution method; format: cell-based; conditions: Salmonella enterica, ATCC14028
Protocol: as §1

A. baumannii ATCC 19606 = assay: Antibacterial MIC, double-dilution method; format: cell-based; conditions: Acinetobacter baumannii, ATCC19606
Protocol: as §1

K. pneumoniae ATCC 27736 = assay: Antibacterial MIC, double-dilution method; format: cell-based; conditions: Klebsiella pneumoniae, ATCC27736, strain H, Gram-negative, read-out: MIC
Protocol: as §1

C. albicans ATCC 2876 = assay: Antifungal MIC, CLSI M27-A3 microbroth dilution; format: cell-based, Candida albicans; conditions: Candida albicans, ATCC2876, C. albicans ATCC 2876, susceptible to FLC, ITC, and VOR, read-out: MIC
Protocol: (§2) In vitro MIC testing was performed according to the CLSI M27-A3 standard microbroth dilution methodology for the susceptibility testing of yeasts with minor modifications.

C. albicans ATCC 90819 = assay: Antifungal MIC, CLSI M27-A3 microbroth dilution; format: cell-based, Candida albicans; conditions: Candida albicans, ATCC90819, C. albicans ATCC 90819, resistant to FLC, ITC, and VOR, read-out: MIC
Protocol: as §2

C. albicans ATCC 64124 = assay: Antifungal MIC, CLSI M27-A3 microbroth dilution; format: cell-based, Candida albicans; conditions: Candida albicans, ATCC64124, C. albicans ATCC 64124, resistant to FLC, ITC, and VOR, read-out: MIC
Protocol: as §2

C. albicans ATCC 1237 = assay: Antifungal MIC, CLSI M27-A3 microbroth dilution; format: cell-based, Candida albicans; conditions: ITC, and VOR
Protocol: as §2

C. albicans ATCC 10231 = assay: Antifungal MIC, CLSI M27-A3 microbroth dilution; format: cell-based, Candida albicans; conditions: Candida albicans, ATCC10231, C. albicans ATCC 10231, resistant to FLC, ITC, and VOR, read-out: MIC
Protocol: as §2

C. albicans ATCC 2310 = assay: Antifungal MIC, CLSI M27-A3 microbroth dilution; format: cell-based, Candida albicans; conditions: Candida albicans, ATCC2310, C. albicans ATCC 2310, susceptible to FLC, ITC, and VOR, read-out: MIC
Protocol: as §2

C. albicans ATCC 1003 = assay: Antifungal MIC, CLSI M27-A3 microbroth dilution; format: cell-based, Candida albicans; conditions: Candida albicans, ATCC1003, read-out: MIC
Protocol: as §2

[3] = strain C, Gram-positive, range 0.5 to 500 μM, read-out: MIC
[4] = strain G, Gram-negative, converted from μM, read-out: MIC
[5] = strain G, Gram-negative, range 0.5 to 500 μM, read-out: MIC
[6] = Mycolicibacterium smegmatis, MC2155, strain K, converted from μM, read-out: MIC
[7] = Mycolicibacterium smegmatis, MC2155, strain K, range 0.5 to 500 μM, read-out: MIC
[8] = strain D, Gram-positive, range 0.5 to 500 μM, read-out: MIC
[9] = strain B, Gram-positive, range 0.5 to 500 μM, read-out: MIC
[10] = strain J, Gram-negative, range 0.5 to 500 μM, read-out: MIC
[11] = strain E, Gram-negative, range 0.5 to 500 μM, read-out: MIC
[12] = Candida albicans, ATCC1237, C. albicans ATCC 1237, resistant to FLC, converted from μg/mL, read-out: MIC
[13] = Candida albicans, ATCC1237, C. albicans ATCC 1237, resistant to FLC, read-out: MIC
[14] = C. albicans ATCC 1003, converted from μg/mL
[15] = strain C, Gram-positive, converted from μM, read-out: MIC
[16] = strain D, Gram-positive, converted from μM, read-out: MIC
[17] = strain B, Gram-positive, converted from μM, read-out: MIC
[18] = strain J, Gram-negative, converted from μM, read-out: MIC
[19] = strain E, Gram-negative, converted from μM, read-out: MIC

| SMILES | MIC (MRSA; [3]) [µM] | MIC (B. subtilis 168; converted from μM) [mg/L] | MIC (B. subtilis 168; range 0.5 to 500 μM) [µM] | MIC (VRE; [8]) [µM] | MIC [2, 9] [µM] | MIC (S. enterica ATCC 14028; [10]) [µM] | MIC (A. baumannii ATCC 19606; [11]) [µM] | MIC (K. pneumoniae ATCC 27736; converted from μM) [mg/L] | MIC (K. pneumoniae ATCC 27736; range 0.5 to 500 μM) [µM] | MIC (C. albicans ATCC 2876; converted from μg/mL) [µM] | MIC (C. albicans ATCC 2876) [mg/L] | MIC (C. albicans ATCC 90819; converted from μg/mL) [µM] | MIC (C. albicans ATCC 90819) [mg/L] | MIC (C. albicans ATCC 64124; converted from μg/mL) [µM] | MIC (C. albicans ATCC 64124) [mg/L] | MIC (C. albicans ATCC 1237; [12]) [µM] | MIC (C. albicans ATCC 1237; [13]) [mg/L] | MIC (C. albicans ATCC 10231; converted from μg/mL) [µM] | MIC (C. albicans ATCC 10231) [mg/L] | MIC (C. albicans ATCC 2310; converted from μg/mL) [µM] | also measured |
| --- | --- | --- | --- | --- | --- | --- | --- | --- | --- | --- | --- | --- | --- | --- | --- | --- | --- | --- | --- | --- | --- |
| C/C(=N\NC(=N)N)c1ccc(-c2ccc(/C(C)=N/NC(=N)N)cc2)cc1.Cl.Cl [Compound 4A, (2E,2′E)-2,2′-([1,1′-Biphenyl]-4,4′-diylbis(ethan-1-yl-1-ylidene))bis(hydrazine-1-carboximidamide) dihydrochloride] | > 500 | > 212 | > 500 | > 500 | > 500 | > 500 | > 500 | 6.6 | 15.6 | 4.7 | 2 | 9.2 | 3.9 | 4.7 | 2 | > 73.9 | 31.3 | 4.7 to 9.2 | 2 to 3.9 | 9.2 | MIC [1]: 2 to 3.9 mg/L; MIC (P. aeruginosa ATCC 27853; converted from μM): 0.8 mg/L; MIC (P. aeruginosa ATCC 27853; range 0.5 to 500 μM): 2 µM; MIC (E. cloacae ATCC 13047; converted from μM): 52.9 mg/L; MIC (E. cloacae ATCC 13047; range 0.5 to 500 μM): 125 µM; MIC (MRSA): > 212 mg/L; MIC (E. coli MC1061; [4]): 26.5 mg/L; MIC (E. coli MC1061; [5]): 62.5 µM; MIC (M. smegmatis MC2-155; [6]): > 212 mg/L; MIC (M. smegmatis MC2-155; [7]): > 500 µM; MIC (VRE): > 212 mg/L; MIC [2]: > 212 mg/L; MIC (S. enterica ATCC 14028): > 212 mg/L; MIC (A. baumannii ATCC 19606): > 212 mg/L; MIC (C. albicans ATCC 1237; C. albicans ATCC 1237, resistant to FLC, dihydrochloride): >31.3 mg/L; MIC (C. albicans ATCC 2310): 3.9 mg/L; MIC (C. albicans ATCC 1003; [14]): 18.4 µM; MIC (C. albicans ATCC 1003): 7.8 mg/L |
| C/C(=N\NC(=N)N)c1ccc(Cc2ccc(/C(C)=N/NC(=N)N)cc2)cc1.Cl.Cl [Compound 4C, (2E,2′E)-2,2′-((methylenebis(4,1-phenylene))bis(ethan-1-yl-1-ylidene))bis(hydrazine-1-carboximidamide) dihydrochloride] | 3.9 | > 219 | > 500 | 2 | 3.9 | > 500 | > 500 | > 219 | > 500 | 8.9 | 3.9 | 17.8 | 7.8 | 17.8 | 7.8 | 17.8 | 7.8 | 17.8 | 7.8 | 17.8 | MIC (P. aeruginosa ATCC 27853; converted from μM): > 219 mg/L; MIC (P. aeruginosa ATCC 27853; range 0.5 to 500 μM): > 500 µM; MIC (E. cloacae ATCC 13047; converted from μM): > 219 mg/L; MIC (E. cloacae ATCC 13047; range 0.5 to 500 μM): > 500 µM; MIC (MRSA; [15]): 1.7 mg/L; MIC (E. coli MC1061; [4]): > 219 mg/L; MIC (E. coli MC1061; [5]): > 500 µM; MIC (M. smegmatis MC2-155; [6]): 0.9 mg/L; MIC (M. smegmatis MC2-155; [7]): 2 µM; MIC (VRE; [16]): 0.9 mg/L; MIC [2, 17]: 1.7 mg/L; MIC (S. enterica ATCC 14028; [18]): > 219 mg/L; MIC (A. baumannii ATCC 19606; [19]): > 219 mg/L; melting point: 342 to 344 °C; MIC (C. albicans ATCC 2310): 7.8 mg/L; MIC (C. albicans ATCC 1003; [14]): 17.8 µM; MIC (C. albicans ATCC 1003): 7.8 mg/L |
| C/C(=N\NC(=N)N)c1cccc(/C(C)=N/NC(=N)N)c1.Cl.Cl [Compound 4H, (2E,2′E)-2,2′-(1,3-Phenylenebis(ethan-1-yl-1-ylidene))bis(hydrazine-1-carboximidamide) dihydrochloride] | > 500 | 86.8 | 250 | 125 | 250 | 62.5 to 250 | > 500 | > 173 | > 500 | 22.5 | 7.8 | > 90.1 | > 31.3 | > 90.1 | > 31.3 | 90.1 | 31.3 | > 90.1 | > 31.3 | 90.1 | MIC (P. aeruginosa ATCC 27853; converted from μM): 173 mg/L; MIC (P. aeruginosa ATCC 27853; range 0.5 to 500 μM): 500 µM; MIC (E. cloacae ATCC 13047; converted from μM): > 173 mg/L; MIC (E. cloacae ATCC 13047; range 0.5 to 500 μM): > 500 µM; MIC (MRSA; [15]): > 173 mg/L; MIC (E. coli MC1061; [4]): > 173 mg/L; MIC (E. coli MC1061; [5]): > 500 µM; MIC (M. smegmatis MC2-155; [6]): 5.4 mg/L; MIC (M. smegmatis MC2-155; Mycolicibacterium smegmatis, MC2155, strain K, range 0.5 to 500 μM): 15.6 to 31.3 µM; MIC (M. smegmatis MC2-155; strain K, range 0.5 to 500 μM, dihydrochloride): (15.6) μM; MIC (VRE; [16]): 43.4 mg/L; MIC [2, 17]: 86.8 mg/L; MIC (S. enterica ATCC 14028; [18]): 21.7 to 86.8 mg/L; MIC (A. baumannii ATCC 19606; [19]): > 173 mg/L; MIC (C. albicans ATCC 2310): 31.3 mg/L; MIC (C. albicans ATCC 1003; [14]): > 90.1 µM; MIC (C. albicans ATCC 1003): > 31.3 mg/L |
| C/C(=N\NC(=N)N)c1ccc(-c2ccc(/C(C)=N/Nc3ccccc3Cl)cc2)cc1.Cl [Compound 8Aa, (E)-2-(1-(4′-((E)-1-(2-(2-chlorophenyl)hydrazono)ethyl)-[1,1′-biphenyl]-4-yl)ethylidene)hydrazine-1-carboximidamide hydrochloride] | 125 | 26.6 to 53.3 | 62.5 to 125 | 3.9 | 62.5 to 125 | 62.5 to 125 | 62.5 | 26.6 to 53.3 | 62.5 to 125 | 34.3 | 15.6 | 34.3 | 15.6 | 68.7 | 31.3 | 34.3 | 15.6 | 34.3 | 15.6 | 34.3 | MIC [1]: 7.8 to 15.6 mg/L; MIC (MRSA; [15]): 53.3 mg/L; MIC (E. coli MC1061): 213 µg/mL and 500 µM; MIC (VRE; [16]): 1.7 mg/L; MIC [2, 17]: 26.6 to 53.3 mg/L; MIC (S. enterica ATCC 14028; [18]): 26.3 to 53.3 mg/L; MIC (A. baumannii ATCC 19606; [19]): 26.6 mg/L; melting point: > 380 °C; MIC (C. albicans ATCC 2310): 15.6 mg/L; MIC (C. albicans ATCC 1003; [14]): 34.3 µM; MIC (C. albicans ATCC 1003): 15.6 mg/L |
